Source: ChEMBL document CHEMBL5154777, “Alternative approaches utilizing click chemistry to develop next-generation analogs of solithromycin” (2022)
In brackets after ≈: the same amount, converted by molar mass.

Assays:
Format in all cases: functional
[1] = test system: Staphylococcus aureus; experiment: Antibacterial activity against methicillin-resistant Staphylococcus aureus ATCC 43300
[2] = test system: Escherichia coli; experiment: Antibacterial activity against Escherichia coli MG1655
[3] = test system: Acinetobacter baumannii; experiment: Antibacterial activity against Acinetobacter baumannii 2208 ATCC 19606
[4] = test system: Enterococcus faecium; experiment: Antibacterial activity against Enterococcus faecium NCTC 7171
[5] = test system: Klebsiella pneumoniae; experiment: Antibacterial activity against Klebsiella pneumoniae BAA 2146
[6] = test system: Enterobacter cloacae; experiment: Antibacterial activity against Enterobacter cloacae ATCC 13047
[7] = test system: Pseudomonas aeruginosa; experiment: Antibacterial activity against Pseudomonas aeruginosa HER 1018
[8] = test system: Escherichia coli; experiment: Antibacterial activity against Escherichia coli SQ171
[9] = test system: Staphylococcus aureus; experiment: Antibacterial activity against Staphylococcus aureus UCN18
[10] = test system: Staphylococcus aureus; experiment: Antibacterial activity against Staphylococcus aureus ATCC 29213
[11] = test system: Escherichia coli; experiment: Antibacterial activity against Escherichia coli DK2058G
[12] = test system: Staphylococcus aureus; experiment: Antibacterial activity against Staphylococcus aureus UCN14
[13] = test system: Escherichia coli; experiment: Antibacterial activity against Escherichia coli DK3535
[14] = test system: Escherichia coli; experiment: Antibacterial activity against Escherichia coli SQ171 2058G
[15] = test system: Staphylococcus aureus; experiment: Antibacterial activity against Staphylococcus aureus UCN17
[16] = test system: Escherichia coli; experiment: Antibacterial activity against Escherichia coli DK

Compound: [N-]=[N+]=NC[C@@H]1CN(c2ccc(N3CCOCC3)c(F)c2)C(=O)O1
- MIC [1]: > 200 µM
- MIC [2]: > 200 µM
- MIC [3]: > 200 µM
- MIC [4]: > 200 µM
- MIC [5]: > 200 µM
- MIC [6]: > 200 µM
- MIC [7]: > 200 µM

Compound: [N-]=[N+]=NC[C@H]1CN(c2ccc(N3CCOCC3)c(F)c2)C(=O)O1
- MIC [1]: > 200 µM
- MIC [2]: > 200 µM
- MIC [3]: > 200 µM
- MIC [4]: > 200 µM
- MIC [5]: > 200 µM
- MIC [6]: > 200 µM
- MIC [7]: > 200 µM

Compound: CC[C@H]1OC(=O)[C@@](C)(F)C(=O)[C@H](C)[C@@H](O[C@@H]2O[C@H](C)C[C@H](N(C)CCc3cn(C[C@@H]4CN(c5ccc(N6CCOCC6)c(F)c5)C(=O)O4)nn3)[C@H]2O)[C@](C)(OC)C[C@@H](C)C(=O)[C@H](C)C2N(CCCCn3cc(-c4cccc(N)c4)nn3)C(=O)O[C@@]21C (single isomer, unassigned)
- MIC [1]: 200 µM (≈ 241 µg/mL)
- MIC [2]: > 200 µM
- MIC [3]: > 200 µM
- MIC [4]: > 200 µM
- MIC [5]: > 200 µM
- MIC [6]: > 200 µM
- MIC [7]: > 200 µM

Compound: CC[C@H]1OC(=O)[C@@](C)(F)C(=O)[C@H](C)[C@@H](O[C@@H]2O[C@H](C)C[C@H](N(C)C)[C@H]2O)[C@](C)(OC)C[C@@H](C)C(=O)[C@H](C)C2N(C/C=C/Cn3cc(-c4cccs4)nn3)C(=O)O[C@@]21C (single isomer, unassigned)
- MIC [8]: > 38 µM
- MIC [9]: 9.6 µM (≈ 8.01 µg/mL)
- MIC [10]: < 0.075 µM
- MIC [11]: 2.4 µM (≈ 2 µg/mL)
- MIC [12]: 19 µM (≈ 15.8 µg/mL)
- MIC [13]: 2.4 µM (≈ 2 µg/mL)
- MIC [14]: > 38 µM
- MIC [15]: 9.6 µM (≈ 8.01 µg/mL)
- MIC [16]: 2.4 µM (≈ 2 µg/mL)

Compound: CC[C@H]1OC(=O)[C@@](C)(F)C(=O)[C@H](C)[C@@H](O[C@@H]2O[C@H](C)C[C@H](N(C)CCCn3cc(-c4cccnc4)nn3)[C@H]2O)[C@](C)(OC)C[C@@H](C)C(=O)[C@H](C)C2N(CCCCn3cc(-c4cccc(N)c4)nn3)C(=O)O[C@@]21C (single isomer, unassigned)
- MIC [8]: > 31 µM
- MIC [9]: > 130 µM
- MIC [10]: 3.9 µM (≈ 3.97 µg/mL)
- MIC [11]: 7.9 µM (≈ 8.04 µg/mL)
- MIC [12]: > 130 µM
- MIC [13]: 7.9 µM (≈ 8.04 µg/mL)
- MIC [14]: > 31 µM
- MIC [15]: > 130 µM
- MIC [16]: 3.9 µM (≈ 3.97 µg/mL)

Compound: CC[C@H]1OC(=O)[C@@](C)(F)C(=O)[C@H](C)[C@@H](O[C@@H]2O[C@H](C)C[C@H](N(C)CCCCn3cc(-c4cccnc4)nn3)[C@H]2O)[C@](C)(OC)C[C@@H](C)C(=O)[C@H](C)C2N(CCCCn3cc(-c4cccc(N)c4)nn3)C(=O)O[C@@]21C (single isomer, unassigned)
- MIC [8]: > 31 µM
- MIC [9]: > 120 µM
- MIC [10]: 1.9 µM (≈ 1.96 µg/mL)
- MIC [11]: 7.8 µM (≈ 8.04 µg/mL)
- MIC [12]: > 120 µM
- MIC [13]: 7.8 µM (≈ 8.04 µg/mL)
- MIC [14]: > 31 µM
- MIC [15]: > 120 µM
- MIC [16]: 7.8 µM (≈ 8.04 µg/mL)

Compound: CC[C@H]1OC(=O)[C@@](C)(F)C(=O)[C@H](C)[C@@H](O[C@@H]2O[C@H](C)C[C@H](N(C)CCCCn3cc(-c4cccc(N)c4)nn3)[C@H]2O)[C@](C)(OC)C[C@@H](C)C(=O)[C@H](C)C2N(CCCCn3cc(-c4cccc(N)c4)nn3)C(=O)O[C@@]21C (single isomer, unassigned)
- MIC [8]: > 31 µM
- MIC [9]: > 120 µM
- MIC [10]: 0.96 µM (≈ 1 µg/mL)
- MIC [11]: > 31 µM
- MIC [12]: > 120 µM
- MIC [13]: 3.8 µM (≈ 3.97 µg/mL)
- MIC [14]: > 31 µM
- MIC [15]: > 120 µM
- MIC [16]: 7.7 µM (≈ 8.05 µg/mL)

Compound: CC[C@H]1OC(=O)[C@@](C)(F)C(=O)[C@H](C)[C@@H](O[C@@H]2O[C@H](C)C[C@H](N(C)CCn3cc(-c4cccc(N)c4)nn3)[C@H]2O)[C@](C)(OC)C[C@@H](C)C(=O)[C@H](C)C2N(CCCCn3cc(-c4cccc(N)c4)nn3)C(=O)O[C@@]21C (single isomer, unassigned)
- MIC [8]: > 31 µM
- MIC [9]: > 130 µM
- MIC [10]: 0.49 µM (≈ 0.498 µg/mL)
- MIC [11]: > 31 µM
- MIC [12]: > 130 µM
- MIC [13]: > 31 µM
- MIC [14]: > 31 µM
- MIC [15]: > 130 µM
- MIC [16]: > 31 µM

Compound: CC[C@H]1OC(=O)[C@@](C)(F)C(=O)[C@H](C)[C@@H](O[C@@H]2O[C@H](C)C[C@H](N(C)C)[C@H]2O)[C@](C)(OC)C[C@@H](C)C(=O)[C@H](C)C2N(C/C=C/Cn3cc(-c4cccc(O)c4)nn3)C(=O)O[C@@]21C (single isomer, unassigned)
- MIC [8]: > 38 µM
- MIC [9]: 4.7 µM (≈ 3.97 µg/mL)
- MIC [10]: < 0.074 µM
- MIC [11]: 2.4 µM (≈ 2.03 µg/mL)
- MIC [12]: 9.5 µM (≈ 8.02 µg/mL)
- MIC [13]: 2.4 µM (≈ 2.03 µg/mL)
- MIC [14]: > 38 µM
- MIC [15]: 9.5 µM (≈ 8.02 µg/mL)
- MIC [16]: 2.4 µM (≈ 2.03 µg/mL)

Compound: CC[C@H]1OC(=O)[C@@](C)(F)C(=O)[C@H](C)[C@@H](O[C@@H]2O[C@H](C)C[C@H](N(C)CCc3cn(C[C@H]4CN(c5ccc(N6CCOCC6)c(F)c5)C(=O)O4)nn3)[C@H]2O)[C@](C)(OC)C[C@@H](C)C(=O)[C@H](C)C2N(CCCCn3cc(-c4cccc(N)c4)nn3)C(=O)O[C@@]21C (single isomer, unassigned)
- MIC [1]: 0.8 µM (≈ 0.964 µg/mL)
- MIC [2]: > 200 µM
- MIC [3]: > 200 µM
- MIC [4]: 0.2 µM (≈ 0.241 µg/mL)
- MIC [5]: > 200 µM
- MIC [6]: > 200 µM
- MIC [7]: > 200 µM

Compound: CC[C@H]1OC(=O)[C@@](C)(F)C(=O)[C@H](C)[C@@H](O[C@@H]2O[C@H](C)C[C@H](N(C)CCn3cc(-c4cccnc4)nn3)[C@H]2O)[C@](C)(OC)C[C@@H](C)C(=O)[C@H](C)C2N(CCCCn3cc(-c4cccc(N)c4)nn3)C(=O)O[C@@]21C (single isomer, unassigned)
- MIC [8]: > 32 µM
- MIC [9]: > 130 µM
- MIC [10]: 0.25 µM (≈ 0.251 µg/mL)
- MIC [11]: > 32 µM
- MIC [12]: > 130 µM
- MIC [13]: > 32 µM
- MIC [14]: > 32 µM
- MIC [15]: > 130 µM
- MIC [16]: > 32 µM

Compound: CC[C@H]1OC(=O)[C@@](C)(F)C(=O)[C@H](C)[C@@H](O[C@@H]2O[C@H](C)C[C@H](N(C)C)[C@H]2O)[C@](C)(OC)C[C@@H](C)C(=O)[C@H](C)C2N(C/C=C/Cn3cc(-c4cccc(N)c4)nn3)C(=O)O[C@@]21C (single isomer, unassigned)
- MIC [8]: > 38 µM
- MIC [9]: < 0.074 µM
- MIC [10]: < 0.074 µM
- MIC [11]: 2.4 µM (≈ 2.02 µg/mL)
- MIC [12]: 2.4 µM (≈ 2.02 µg/mL)
- MIC [13]: 2 µM (≈ 1.69 µg/mL)
- MIC [14]: > 38 µM
- MIC [15]: 0.15 µM (≈ 0.126 µg/mL)
- MIC [16]: 2.4 µM (≈ 2.02 µg/mL)

Compound: C=CCN(C)[C@H]1C[C@@H](C)O[C@@H](O[C@@H]2[C@@H](C)C(=O)[C@](C)(F)C(=O)O[C@H](CC)[C@@]3(C)OC(=O)N(CCCCN=[N+]=[N-])C3[C@@H](C)C(=O)[C@H](C)C[C@@]2(C)OC)[C@@H]1O (single isomer, unassigned)
- MIC [8]: > 42 µM
- MIC [9]: > 170 µM
- MIC [10]: 0.66 µM (≈ 0.498 µg/mL)
- MIC [11]: 5.3 µM (≈ 4 µg/mL)
- MIC [12]: > 170 µM
- MIC [13]: 11 µM (≈ 8.29 µg/mL)
- MIC [14]: > 42 µM
- MIC [15]: > 170 µM
- MIC [16]: 0.66 µM (≈ 0.498 µg/mL)

Compound: CC[C@H]1OC(=O)[C@@](C)(F)C(=O)[C@H](C)[C@@H](O[C@@H]2O[C@H](C)C[C@H](N(C)CCCn3cc(-c4cccc(N)c4)nn3)[C@H]2O)[C@](C)(OC)C[C@@H](C)C(=O)[C@H](C)C2N(CCCCn3cc(-c4cccc(N)c4)nn3)C(=O)O[C@@]21C (single isomer, unassigned)
- MIC [8]: > 31 µM
- MIC [9]: > 120 µM
- MIC [10]: 0.97 µM (≈ 1 µg/mL)
- MIC [11]: 16 µM (≈ 16.5 µg/mL)
- MIC [12]: > 120 µM
- MIC [13]: 3.9 µM (≈ 4.02 µg/mL)
- MIC [14]: > 31 µM
- MIC [15]: > 120 µM
- MIC [16]: 3.9 µM (≈ 4.02 µg/mL)

Compound: C=CCN(C)[C@H]1C[C@@H](C)O[C@@H](O[C@@H]2[C@@H](C)C(=O)[C@](C)(F)C(=O)O[C@H](CC)[C@@]3(C)OC(=O)N(CCCCn4cc(-c5cccc(N)c5)nn4)C3[C@@H](C)C(=O)[C@H](C)C[C@@]2(C)OC)[C@@H]1O (single isomer, unassigned)
- MIC [8]: > 37 µM
- MIC [9]: 150 µM (≈ 131 µg/mL)
- MIC [10]: 1.1 µM (≈ 0.958 µg/mL)
- MIC [11]: 2.3 µM (≈ 2 µg/mL)
- MIC [12]: > 150 µM
- MIC [13]: 4.6 µM (≈ 4.01 µg/mL)
- MIC [14]: > 37 µM
- MIC [15]: 150 µM (≈ 131 µg/mL)
- MIC [16]: 2.3 µM (≈ 2 µg/mL)

Compound: CC(=O)NC[C@H]1CN(c2ccc(N3CCOCC3)c(F)c2)C(=O)O1 [LINEZOLID]
- MIC [1]: 6 µM (≈ 2.02 µg/mL)
- MIC [2]: > 200 µM
- MIC [3]: > 200 µM
- MIC [4]: 6 µM (≈ 2.02 µg/mL)
- MIC [5]: > 200 µM
- MIC [6]: > 200 µM
- MIC [7]: > 200 µM
